This experiment concerns activated sludge. The experiment in a line: Activated sludge SBR reactor, biological nitrogen removal with added AHLs signal molecule. As to conditions: remaining steps as Example 1 (10° C.).

The compound `CCCCCCCC(=O)N[C@H]1CCOC1=O` [C8-HSL, N-octanoyl-L-homoserine lactone] came in with an ammonia-nitrogen removal efficiency (10 μg/L after addition) of 88.37% and an ammonia-nitrogen removal efficiency (100 μg/L after addition) of 94.54%.
For `CCCCCC(=O)N[C@H]1CCOC1=O` [C6-HSL, N-hexanoyl-L-homoserine lactone] the same measures were 82.34% and 84.29%.
The like results for `CCCCCCCCCCCC(=O)N[C@H]1CCOC1=O` [C12-HSL, N-dodecanoyl-L-homoserine lactone] were, in that order, 90.79% and 80.95%.

The values are drawn from patent publication US20240262727A1, “METHOD FOR IMPROVING BIOLOGICAL NITROGEN REMOVAL EFFECT OF LOW-TEMPERATURE SEWAGE” (Sichuan University, priority 2023, published 2024).
